One test deals with T1, BrlR Y249A DNA binding (Pseudomonas aeruginosa, UniProt Q9HUT5, Y249A).
T1 construct: His6-SUMO (N, cleaved yes); made in house; host or cells: E. coli BL21 DE3
Nature of the test: EMSA, BrlR Y249A with PbrlR. It is filed as biochemical. The procedure: (§1) It is unlikely that the larger drug molecules located in the canonical binding pocket can slide into the pyocyanin binding site and promote BrlR-DNA binding, as reflected by the EMSA results for tobramycin (Fig. 6a). To further verify the amino acid residues contributing to pyocyanin binding, many BrlR mutants were constructed. Whereas mutant E247A was insoluble, mutant F253R was not expressed, and mutant C173W was unstable. The binding affinity of Y183A and Y249A for pyocyanin were evaluated by using EMSA with a 36-bp PbrlR.
(§2) A 6-carboxy-fluorescein (FAM)-labeled 36-bp brlR promoter DNA (PbrlR) or 80-bp mexA/mexE promoter DNA (PmexA/PmexE) probes (~0.375 pmol), BrlR protein and varying amounts of inducers were incubated in binding buffer (10 mM Tris HCl [pH 7.4], 50 mM KCl, 1 mM DTT, […] and 5 ng/mL poly [dI-dC]) for 60 min at 25 °C. Finally, glycerol was added to a concentration of 6.5%. The samples were subjected to a 5% polyacrylamide gel electrophoresis and run in 0.5 × Tris-borate-EDTA buffer at 80 V for 1 h at room temperature. Imaging and data analyses were performed using a Typhoon Scanner (GE Healthcare) and Imagequant software. The probes used are listed in Supplementary Table 1.
(In EMSA bound probe runs differently from free probe, usually more slowly.)

The next test concerns the target T2, BrlR Y183A DNA binding (Pseudomonas aeruginosa, UniProt Q9HUT5, Y183A).
T2 construct: His6-SUMO (N, cleaved yes); made in house; host or cells: E. coli BL21 DE3
Put plainly: EMSA, BrlR Y183A with PbrlR. Format: biochemical. The procedure:
as §1, §2

The target in the next test is T3, BrlR-DNA binding (PbrlR) (Pseudomonas aeruginosa, UniProt Q9HUT5).
T3 construct: His6-SUMO (N, cleaved yes); made in house; host or cells: E. coli BL21 DE3
Nature of the test: EMSA, wild-type BrlR with PbrlR DNA. Format: biochemical. The procedure: as §2

In test [1] the test system is brlR. Set-up: method as in PMID 16879411. As to conditions: addition of pyocyanin to P. aeruginosa PA14 strain; cited from earlier work.
A further test relates to ΔbrlR cells. Put plainly: Planktonic antibiotic susceptibility testing, ΔbrlR. It is filed as cell-based, Pseudomonas aeruginosa. As to conditions: 50 μg/ml tobramycin 1 h, 0.2 mM pyocyanin. The procedure: To determine the role of pyocyanin in antimicrobial susceptibility, P. aeruginosa strains (Supplementary Table 2) were grown at 37 °C in 20-fold diluted LB medium supplemented with or without 0.2 mM pyocyanin, which was purified from stationary phase cultures of PAO1. Tobramycin was added to the mid-log phase (OD600 = 0.8) cells suspension to a final concentration of 50 μg/ml; after 1 h, the broth was serially diluted and spread-printed onto LB agar (medium containing 300 μg/ml carbenicillin was used for the cells harboring plasmid) to determine the cell viability via CFU counts. The cell suspensions without tobramycin were set as controls. Susceptibility is expressed as a logarithmic reduction in CFU amount. The data were analyzed with a one-tailed t-test (***P ≤ 0.001).

Test [2] deals with T4, BrlR binding to PmexA and PmexE (Pseudomonas aeruginosa, UniProt Q9HUT5).
T4 construct: His6-SUMO (N, cleaved yes); made in house; host or cells: E. coli BL21 DE3
Nature of the test: EMSA, BrlR with PmexA and PmexE. As to conditions: increasing concentrations of pyocyanin. It is filed as biochemical. The procedure:
as §2

In test [3] the target is Per-Arnt-Sim (PAS) domain of PA14_07500 (RmcA). Set-up: method as in earlier work. As to conditions: intrinsic fluorescence quenching method; ref 4 (Okegbe et al., 2017) of response letter; cited from earlier work.
For the next test, the system named is brlR transcription. Put plainly: qRT-PCR of brlR transcript. Format: cell-based, P. aeruginosa PAO1. The procedure:
PAO1 WT strains were grown under different conditions. For c-di-GMP effects, overexpression of PA4843 in PAO1 (PAO1/pHERD20T-PA4843) relative to WT cells (PAO1/ pHERD20T) was determined. When P. aeruginosa strains entered mid-log phase, arabinose was added to induce gene expression. To test pyocyanin’s effect, a P. aeruginosa PAO1 WT strain cells with high pyocyanin production was determined relative to a ΔphzA1-G1/phzA2-G2 strain not producing phenazine and a ΔphzMSH strain not producing pyocyanin.
Total RNA was extracted using a MiniBEST Universal RNA Extraction Kit (TaKaRa) and cDNA synthesis was performed using a PrimeScript RT reagent Kit (TaKaRa). Primers for RT-PCR listed in Supplementary Table 1 were designed using the program PrimerExpress (Applied Biosystems). The RT-PCR reactions were performed on a CFX96 Real-Time PCR Detection System (Bio-Rad) using SYBR Premix Ex Taq™ (TaKaRa). Expression of the target genes was normalized to the expression of 16 S RNA. The relative transcript abundance was calculated according to the 2^−ΔΔCt method. Five biological replicates were performed per sample. The data were analyzed with a one-tailed t-test (***P ≤ 0.001).
For orientation: Quantitative PCR measures a nucleic acid by following its amplification.

Test [4] deals with T5, BrlR (Pseudomonas aeruginosa, UniProt Q9HUT5).
T5 construct: His6-SUMO (N, cleaved yes); made in house; host or cells: E. coli BL21 DE3
Nature of the test: Surface plasmon resonance (SPR) analysis. Format: binding. The procedure:
The binding affinity of diverse toxic compounds for BrlR were investigated by SPR using a BIAcore-T200 apparatus (GE Healthcare). The ligand, BrlR (20 μM in 10 mM sodium acetate, pH 4.5), was immobilized on an activated CM5 sensor chip by amine coupling (BIAcore) with 4400 response units (RU), and the unreacted sites were blocked with 1.0 M ethanolamine–HCl (pH 8.5). Steady-state binding analysis was performed with injections of different molecules at different concentrations over the immobilized BrlR surface at a flow rate of 20 μL min^−1 at 25 °C. Association was measured for 180 s, followed by 120 s of dissociation in running buffer (20 mM Hepes pH 7.5, 150 mM NaCl). The sensorgrams for specific interactions were obtained by subtracting the reference unimmobilized flow cell response from that of the sample. Since BrlR only has one binding site for pyocyanin or other toxic compounds (Fig. 5a–f), the kinetic analysis of the sensorgrams from analyte interaction with the immobilized BrlR was performed by fitting the binding curves to a 1:1 binding model. To determine the steady state KD values, equilibrium responses were plotted against analyte concentrations, and the resulting curves were fitted to the steady state model in the BIAevaluation software package, version 3.0 (GE Healthcare).

“And” between values parts separate entries of the source, which are not always exact repeats. Equal entries are not always repeated.

T5 sequence (Q9HUT5 whole entry): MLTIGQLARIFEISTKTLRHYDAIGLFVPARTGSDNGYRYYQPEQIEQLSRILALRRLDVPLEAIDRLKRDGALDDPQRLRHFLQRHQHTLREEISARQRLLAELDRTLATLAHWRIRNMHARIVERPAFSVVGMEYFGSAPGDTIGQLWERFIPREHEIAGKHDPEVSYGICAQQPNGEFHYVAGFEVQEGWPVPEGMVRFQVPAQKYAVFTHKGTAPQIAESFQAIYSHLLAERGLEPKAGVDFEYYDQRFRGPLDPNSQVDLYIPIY
T3 sequence (Q9HUT5 whole entry): as above
T2 sequence (Q9HUT5 whole entry Y183A): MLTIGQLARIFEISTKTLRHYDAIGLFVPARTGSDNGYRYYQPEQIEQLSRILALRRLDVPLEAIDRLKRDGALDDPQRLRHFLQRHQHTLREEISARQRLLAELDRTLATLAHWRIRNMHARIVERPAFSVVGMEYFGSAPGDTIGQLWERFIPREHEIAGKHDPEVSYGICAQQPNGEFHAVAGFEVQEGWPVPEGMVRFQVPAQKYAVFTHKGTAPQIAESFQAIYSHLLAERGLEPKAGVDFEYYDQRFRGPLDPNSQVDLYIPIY
T1 sequence (Q9HUT5 whole entry Y249A): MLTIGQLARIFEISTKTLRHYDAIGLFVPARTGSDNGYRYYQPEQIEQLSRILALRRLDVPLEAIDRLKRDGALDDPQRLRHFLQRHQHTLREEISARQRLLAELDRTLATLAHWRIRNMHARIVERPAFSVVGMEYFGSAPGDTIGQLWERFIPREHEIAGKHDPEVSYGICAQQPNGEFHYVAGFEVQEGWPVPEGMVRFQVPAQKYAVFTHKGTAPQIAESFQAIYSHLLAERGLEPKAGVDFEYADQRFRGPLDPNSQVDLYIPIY
T4 sequence (Q9HUT5 whole entry): as the sequence (Q9HUT5 whole entry) above

As usually defined, the Kd is a measure of binding affinity in units of concentration. `Cn1c2cccc(=O)c-2nc2ccccc21` [pyocyanin, 5-N-methyl-1-hydroxyphenazine]: the “DNA bound in the presence vs absence of pyocyanin” value at BrlR Y249A DNA binding is reported as 4.15 fold; at BrlR Y183A DNA binding, 3.23 fold; on BrlR-DNA binding (PbrlR) (wild-type BrlR, PbrlR), 5.47 fold. Besides, the “effect of c-di-GMP and pyocyanin together on BrlR-DNA binding” value at BrlR-DNA binding (PbrlR) (PbrlR, c-di-GMP, pyocyanin, and both) is listed as “cooperatively enhance”. Further, the “effect on BrlR-PbrlR DNA binding (in words)” value on BrlR-DNA binding (PbrlR) (wild-type BrlR, increasing concentrations of compound) was “significant increase”. The “up-regulation of brlR” value with brlR [1] is given as 2.3 fold. The “viability of tobramycin-treated cells with vs without pyocyanin” value in the test with ΔbrlR cells is given as “no significant difference”. Moreover, the “effect on BrlR binding to PmexA and PmexE” value in test [2] is “enhanced”. Besides, the equilibrium dissociation constant (Kd) is 3 µM in [3]; 4.52 µM and 4.5 µM on BrlR [4] (SPR, immobilized BrlR, steady state, 25 °C). Further, in the test on brlR transcription (PAO1 at high pyocyanin production vs strain not producing phenazine), the “brlR expression level, PAO1 vs ΔphzA1-G1/phzA2-G2 strain” value is reported as ~ 4.0 fold. Also, the “brlR expression level, PAO1 vs ΔphzMSH strain” value in the test on brlR transcription (PAO1 at high pyocyanin production vs strain with no pyocyanin production) is given as ~ 5.3 fold. Besides, the “binding affinity relative to tobramycin” value on BrlR [4] (SPR KD 4.5 μM vs 0.64 mM) is ~ 140 fold.

Source of the values: PMC6028453, “BrlR from Pseudomonas aeruginosa is a receptor for both cyclic di-GMP and pyocyanin” (Nature Communications, 2018).
